From patent US7745402B2, “Method of treating pancreatitis” (Lundbeck Inc., priority 2005, dated 2010) come the findings set out here.

In assay [1] the test system is caerulein-induced pancreatitis. Kind of assay: Caerulein-induced pancreatitis and its pulmonary complications after hemin pretreatment. Type of assay: in vivo, Balb/c mice. The conditions noted are these: hemin 3× every other day, then caerulein hourly 7×; 12 h. The procedure: (A,B) Mice were injected intraperitoneally with hemin (H) or vehicle (V; 7 mice/group) every other day (3×; arrows) followed by injection with either saline (Sal) or caerulein (Cae) hourly (7×; arrows) and then harvesting of the pancreata and lungs at 12 h after first Sal or Cae injection. Sera were collected for amylase/lipase measurement. (C-E) Pancreatic and lung tissues (from panels A,B) were used to determine trypsin (pmol/mg protein) and myeloperoxidase (MPO; ng/mg wet tissue) enzyme activities and to assess extent of tissue injury. Data are presented as mean±SD. A representative hematoxylin and eosin staining of lung is shown (scale bar=50 μM).
Mice and pancreatitis models. Experiments and animal care were performed according to approved institutional guidelines. […]
Animal procedures. […] Immunofluorescence staining was performed as described (29) and images were analyzed using confocal microscopy. Total tissue lysates were prepared by homogenization in Laemmli sample buffer and analyzed by SDS-PAGE followed by transfer to membranes for blotting and protein visualization by enhanced chemiluminescence. Trypsin activity was determined using a fluorimetric assay and the substrate Boc-Gln-Ala-Arg-MCA (Peptides International Inc.; Louisville, Ky.), and comparison to a standard curve generated with purified trypsin as described. […]

The subject of assay [2] is RANTES. Kind of assay: Real-time RT-PCR of pancreatic chemokine mRNA after hemin. The following applies: pancreas 24 h after one intraperitoneal injection. Type of assay: in vivo, mice. The procedure:
(§1) FIG. 3: Hemin increases HO-1^+ pancreatic macrophages in association with MCP-1 and MIP-1α induction. (A) Pancreas from CDD-fed mice was triple-stained using antibodies to HO-1 (a), the macrophage marker F4/80 (b), and the granulocyte marker Gr-1 (c). Scale bar in panel d=[…]. (B) Mice were treated intraperitoneally with hemin (H) or vehicle (V) once (H×1) or 3×(H×3, V×3) during a one week period, followed by feeding with CDD or regular chow for 3 d. Pancreata were collected followed by staining and counting F4/80^+ macrophages in 10 randomly selected high power fields (HPF). The mean±SD (3 mice/group) and p-value for the indicated comparisons are shown. (C) Hemin (H) or vehicle (V) were injected intraperitoneally once followed by harvesting of pancreata after 24 h. A non-injected control “C” group was also included. mRNA levels were then estimated from pancreata of 3 mice/group as a ratio of the indicated chemokine to β-actin (mean±SD).
(§2) Real-time reverse transcription (RT)-PCR. Total RNA was isolated from pancreatic tissue using a commercial kit (TEL-TEST; Friendswood, Tex.). First strand cDNA was synthesized using oligo-dT primers and SuperScript II reverse transcriptase (Invitrogen; Carlsbad, Calif.). Real-time quantitative PCR was performed with an ABI Prism 7900 Sequence Detection System (PE Biosystems; Foster City, Calif.) and established primers for MCP-1, MIP-1α, MIP-2, RANTES, and β-actin. Zhong, B., et al., J. Cell Sci. 117:1709-1719; Zhang, Y., McCormick, L. L., Desai, S. R., Wu, C., and Gilliam, A. C. 2002. Murine sclerodermatous graft-versus-host disease, a model for human scleroderma: cutaneous cytokines, chemokines, and immune cell activation. J. Immunol. 168:3088-3098; Walzog, B., Weinmann, P., Jeblonski, F., Scharffetter-Kochanek, K., Bommert, K., and Gaehtgens, P. 1999. A role for beta(2) integrins (CD11/CD18) in the regulation of cytokine20 gene expression of polymorphonuclear neutrophils during the inflammatory response. FASEB J. 13:1855-1865. Primers to β-actin were used as an internal control reference, and the amount of specific cytokine relative to actin transcript was determined and reported as mean±SD.
(In general: Quantitative PCR measures a nucleic acid by following its amplification.)

The subject of assay [3] is MIP-2. The description is as above. The following applies: pancreas 24 h after one intraperitoneal injection. Type of assay: in vivo, mice. The procedure: as §1, §2
The test system of assay [4] is MIP-1α. Described as above. Type of assay: in vivo, mice. The conditions noted are these: pancreas 24 h after one intraperitoneal injection. The procedure:
as §1, §2

Assay [5] concerns MCP-1. The description is as above. Type of assay: in vivo, mice. The conditions noted are these: pancreas 24 h after one intraperitoneal injection. The protocol:
as §1, §2

The test system of assay [6] is CDD-induced pancreatitis. Kind of assay: Choline deficient diet (CDD)-induced pancreatitis after hemin pretreatment.
Method: (D-F) Mice were injected with saline, hemin, or vehicle (8 mice/group)3×(arrows) followed by feeding with CDD for 3 d then harvesting of the pancreata.
Balb/c mice were housed under pathogen-free conditions and utilized in two established models of pancreatitis. […] For the pancreatitis induced by feeding a choline/methionine-deficient diet (CDD), young female mice (15-19 g) were fasted then fed CDD (Harlan Teklad; Madison Wis.) supplemented with 0.5% DL-ethionine (Sigma; St. Louis, Mo.) or normal chow (control group) for 3 d, then switched to normal diet for 1, 2 or 5 d.
Animal procedures. Mice were euthanized by CO2 inhalation then pancreata and lungs were rapidly removed, divided into 3-4 pieces, and blood was collected by intracardiac puncture. Individual lung and pancreas fragments were immediately fixed in 10% formalin, embedded in OCT (Miles; Elkhart, Ind.) or snap-frozen in liquid N2 for subsequent protein, enzyme, and RNA analysis. […] Fixed tissues were sectioned then stained using hematoxylin and eosin (performed by Histo-tec Laboratory; Hayward, Calif.).

On to Hemin, for which the “lung histology (hemorrhage, alveolar collapse)” value in assay [1] was “marked hemorrhage and alveolar collapse in vehicle (a) compared to hemin (b) pretreated mice”. In assay [2], the “change in RANTES mRNA level” value was “not significant”. In assay [3], the “change in MIP-2 mRNA level” value was “not significant”. Moreover, the “MIP-1α mRNA (ratio to β-actin)” value in assay [4] is listed as “induction”. The “MCP-1 mRNA (ratio to β-actin)” value in assay [5] is “induction”. In addition, the pancreatic injury result in assay [6] (figure title) is reported as “inhibition of pancreatic injury”. In assay [6] (hematoxylin and eosin, mice that survived CDD feeding), the “pancreas histology (edema, necrosis)” value was “marked pancreas edema (E) and necrosis (N) in the saline (not shown) and vehicle injected mice, as compared with the “hemin” group”. Also, the survival result in assay [6] (hemin 3× then CDD 3 d, 8 mice/group, p<0.03 vs controls (saline+vehicle)) is “survival difference was significant”.
